Measured values from US20110135756A1, “COMPOSITIONS AND METHODS FOR PROTECTING SENSORY HAIR CELLS” (University of Washington, priority 2009, published 2011).
“Also recorded” adds a separate entry of the source. Structures can show the parent of a compound that is named as a salt.

Assays:
[1] = system: gentamicin entry into hair cells; test: Gentamicin-conjugated Texas Red (GTTR) uptake imaging; assay type: in vivo, zebrafish (Danio rerio); conditions: protective drug at optimal dose; 50 uM GTTR for 3 min
Description: Gentamicin-conjugated Texas Red Imaging. […] Fish were anesthetized with MS222 and transferred to double wholemount slides for imaging using fluorescence microscopy on an automated stage (Marianas imaging system, Intelligent Imaging Innovations) with a Zeiss Axiovert 200M inverted microscope (Carl Zeiss). Each image contained a z-stack encompassing 2-3 neuromasts as determined by viewing under brightfield illumination. Each fish was imaged once and 5 fish were imaged for each treatment group. Control fish were treated with EM only (mock-treated) or with 3 min of 50 uM GTTR only.
GTTR Image analysis. […] Then 2-3 neuromasts per image were traced and converted to a mask field “Mask 1”. […] Then Boolean addition was used to create the neuromast mask (NM) by taking “Mask1” AND thresholded segment and the background mask (BG) by taking “Mask2” AND thresholded segment. Mean intensity, standard deviation of intensity, sum intensity and volume in voxels were calculated for NM and BG. To create an index of intensity, NM/BG was calculated for each fish and values for mock-treated fish were subtracted and multiplied by 100 to obtain “% intensity above background”.

[2] = system: hair cells of the zebrafish lateral line; test: Dose response testing: protection of zebrafish lateral line hair cells against toxin-induced hair cell death (DASPEI neuromast scoring); assay type: in vivo, zebrafish (Danio rerio)
Description: Animal care. Wildtype Larval zebrafish (Danio rerio) were produced via group matings of adult fish. […] Beginning at 4 days post-fertilization (dpf), fish were fed live paramecia or rotifers daily. Experiments were performed using 5 or 6 dpf larvae. The University of Washington Animal Care and Use Committee approved of the animal procedures described here.
Dose response testing. Drug screen “hits” were tested to determine minimum concentrations of drug and maximum concentrations of toxin that confer protection against hair cell death. All “hits” were tested against all four hair cell toxins regardless of whether a given “hit” was positive with a specific toxin in the screen. 5 or 6 dpf larvae were transferred to 6-well Corning Netwell baskets and placed in 6-well plates (Fisher Scientific) in EM with approximately 10 fish per basket. This allowed for easy transfer between treatment media. Drug and toxins were made up in 7 ml of EM. Larvae were pretreated for one hour in a dose of protective drug followed by cotreatment in protective drug and hair cell toxin. […] Then larvae were rinsed 4× and anesthetized with MS222. Larvae were transferred to glass depression slides and viewed on a Leica epifluorescent microscope with a DASPEI filter (Chroma Technologies, Brattleboro Vt.). […] To find minimum protective concentrations, doses of protective drug tested were 0, 0.5, 1, 5, 10, 50, 100 uM and toxin dose was held at the concentrations used for screening (see above). For those doses of putative protectants that killed the larvae, further doses were tested to determine if intermediate doses were optimal. For dose response curves finding maximum toxin dose at which protection occurs, dose of protective drug was held at previously determined optimal dose and toxin dose was varied as follows: […]

[3] = system: bacteria; test: Antibiotic efficacy of the ototoxic aminoglycoside in presence of protective drug; assay type: cell-based
[4] = system: hair cells of the zebrafish lateral line; test: Screen of BIOMOL FDA Approved Drug Library for protection against toxin-induced hair cell death (YO-PRO1); assay type: in vivo, zebrafish (Danio rerio); conditions: 4 μg/ml library compound, 1 hr preincubation
Description: Drug Library. BIOMOL's FDA Approved Drug Library (Enzo Life Sciences Inc., Plymouth Meeting, Pa., USA (formerly BIOMOL International, L.P.)) was used to screen zebrafish larvae for compounds that protect against toxin-induced hair cell death. The library consists of 640 drugs dissolved at 2 mg/ml in dimethyl sulfoxide (DMSO). The drugs were aliquoted into eight 96-well plates with 80 drugs per plate and stored at 4 C during initial screening and re-testing.
Screening. Larvae were prelabeled with 2 μM YO-PRO1 (Invitrogen, Carlsbad, Calif. USA; Y3603) in embryo medium for 30 min and then rinsed three times. […]
Concentrations and incubation times were chosen based on previously determined dose-response in order to achieve maximal hair cell death at the lowest concentration of toxin (Ou et al. 2007; Owens et al. 2009). […] After incubation in library drug and hair cell toxin, larvae were anesthetized with 0.001% MS222 (3-aminobenzoic acid ethyl ester methanesulfonate; Sigma) and immediately viewed using fluorescence microscopy on an automated stage (Marianas imaging system, Intelligent Imaging Innovations) using a Zeiss Axiovert 200M inverted microscope (Carl Zeiss). Fish were scored on a scale from 0 to 2 with 2 corresponding to mostly healthy hair cells and a 0 corresponding to mostly dead hair cells. […]

[5] = system: hair cells of the zebrafish lateral line; test: Pretreatment experiments (1 hr, 15 min or no pretreatment before 200 uM neomycin); assay type: in vivo, zebrafish (Danio rerio); conditions: for Pre-treatment time prior to aminoglycoside exposure giving greater effectiveness: zebrafish, in vivo
Description: Pretreatment experiments. […] Controls were mock treated or treated with neomycin only.

[6] = system: hearing (threshold shift); assay type: in vivo, rat; conditions: rats; protectant 25 mg/kg intraperitoneally; kanamycin 25 mg/kg per day i.p. for two weeks
Description: Rats were injected with 25 mg/kg per day (intraperitoneal) kanamycin for two weeks, a treatment that induces a hearing loss similar to that observed in humans following aminoglycoside treatment. At higher frequencies, the hearing loss observed in rats treated with kanamycin (without protectant) is a threshold shift of 50 dB and at mid-frequencies a hearing loss observed is 30-40 dB threshold shift.
The PROTO1 was administered intraperitoneally at a dose of 25 mg/kg. The PROTO1 was given as a 3.33 mg/mL solution in 1:1:2:16 (DMSO:Cremophor EL:EtOH:PBS).

[7] = system: sensory hair cells; test: Zebrafish model of protection of sensory hair cells against ototoxins (PROTO1); conditions: in vivo
[8] = system: cultured lung cancer cells; test: Inhibition of growth of cultured lung cancer cells in presence of protective drug (in vitro); assay type: cell-based; conditions: in vitro testing
[9] = system: zebrafish hair cells; test: Quinoline ring derivatives: pretreatment protection against neomycin-induced hair cell death (FIG. 1); assay type: in vivo; conditions: 5 dpf zebrafish; 0, 10, 50, 100 or 200 μM pretreatment; 200 μM neomycin
Description: (§1) FIG. 1 is a bar graph depicting results of cinchonine pretreatment, which protects against neomycin-induced hair cell death. Five day post-fertilization zebrafish were pretreated with 0, 10, 50, 100 or 200 μM cinchonine prior to treatment with 200 μM neomycin. […] The negative control represents fish not exposed to neomycin. Data bars are mean hair cell survival from 8 to 10 fish. Error bars represent standard deviation from the mean.
as §1, with “Five” for “FIG. 1 is a bar graph depicting results of cinchonine pretreatment, which protects against neomycin-induced hair cell death. Five”

[10] = system: hearing and vestibular function; conditions: human, in vivo; cited from earlier work

| SMILES | Uptake (whether gentamicin is able to enter cells in the presence of protective drug) [1] | Protection of sensory hair cells against gentamicin ([2]; zebrafish, in vivo) | Effect on antibiotic efficacy of the ototoxic aminoglycoside [3] | other results |
| --- | --- | --- | --- | --- |
| NC(=NCc1ccccc1)NC(=O)c1nc(Cl)c(N)nc1N [Benzamil] | attenuate | – | – | – |
| CCN(CC)CCCC(C)Nc1ccnc2cc(Cl)ccc12 (stereo not drawn) [Chloroquine diphosphate] | – | protect against gentamicin | without diminishing the antibiotic efficacy | – |
| CNCCC(Oc1ccc(C(F)(F)F)cc1)c1ccccc1 (stereo not drawn) [Fluoxetine HCl] | no block | – | without diminishing the antibiotic efficacy | – |
| O=C1NCN(c2ccccc2)C12CCN(CCCC(c1ccc(F)cc1)c1ccc(F)cc1)CC2 [Fluspirilene] | no block | – | without diminishing the antibiotic efficacy | – |
| CN(C)C(=O)C(CCN1CCC(O)(c2ccc(Cl)cc2)CC1)(c1ccccc1)c1ccccc1 [Loperamide] | no block | protect against gentamicin | without diminishing the antibiotic efficacy | Protection of sensory hair cells against kanamycin ([2]; zebrafish, in vivo): protect against kanamycin; Protection in library screen against aminoglycosides (neomycin, gentamicin, kanamycin) and/or cisplatin [4]: protects against all four toxins |
| CSc1ccc2c(c1)C(N1CCN(C)CC1)Cc1ccccc1S2.O=C(O)/C=C\C(=O)O (stereo not drawn) [Methiothepin maleate] | no block | protect against gentamicin | without diminishing the antibiotic efficacy | Drug dose (optimal dose that confers protection against toxins) ([2]; 5 or 6 dpf larvae, toxin dose held at screening concentration): 10 µM; Pre-treat (necessary pretreatment time before toxin exposure for effective protection) ([5]; followed by 1 hr cotreatment with 200 uM neomycin): 60 min; Pre-treatment time prior to aminoglycoside exposure giving greater effectiveness [5]: 60 min |
| CCN1CCc2c(sc(NC(=O)Nc3ccc(Cl)cc3)c2C(N)=O)C1 [PROTO1, 2-({[(4-chlorophenyl)amino]carbonyl}amino)-6-ethyl-4,5,6,7-tetrahydrothieno[2,3-c]pyridine-3-carboxamide] | – | – | – | Protection against kanamycin-induced hearing loss [6]: significant protection against hearing loss; Protection of sensory hair cells against ototoxins in the Zebrafish model [7]: shown to protect |
| Fc1ccc([C@@H]2CCNC[C@H]2COc2ccc3c(c2)OCO3)cc1 [Paroxetine HCl] | attenuate | protect against gentamicin | without diminishing the antibiotic efficacy | Protection of sensory hair cells against cisplatin ([2]; zebrafish, in vivo): protective against cisplatin; Effect on inhibition of growth of cultured lung cancer cells [8]: alters inhibition of growth of some cultured lung cancer cells at some doses and not at others |
| CC(COc1ccccc1)N(CCCl)Cc1ccccc1 (stereo not drawn) [Phenoxybenzamine HCl] | attenuate | protect against gentamicin | without diminishing the antibiotic efficacy | Pre-treatment time prior to aminoglycoside exposure giving greater effectiveness [5]: 15 min |
| CC(CCc1ccc(O)cc1)NCC(O)c1ccc(O)cc1 (stereo not drawn) [Ractopamine] | block | protect against gentamicin; also recorded: protected | without diminishing the antibiotic efficacy | Protection of sensory hair cells against kanamycin ([2]; zebrafish, in vivo): protect against kanamycin; also recorded: protected; Protection of sensory hair cells from neomycin ([2]; zebrafish, in vivo): protected |
| O=C(c1ccc(OCCN2CCCCC2)cc1)c1c(-c2ccc(O)cc2)sc2cc(O)ccc12 [Raloxifene HCl] | block | protect against gentamicin | without diminishing the antibiotic efficacy | – |
| CC/C(=C(\c1ccccc1)c1ccc(OCCN(C)C)cc1)c1ccccc1 [Tamoxifen citrate] | no block | – | without diminishing the antibiotic efficacy | – |
| CN(C)CCOc1ccc(/C(=C(/CCCl)c2ccccc2)c2ccccc2)cc1 [Toremifene citrate] | – | – | without diminishing the antibiotic efficacy | – |
| C=C[C@H]1C[N@@]2CC[C@H]1C[C@@H]2[C@@H](O)c1ccnc2ccccc12 [cinchonine] | – | – | – | Hair cell survival after neomycin with cinchonine pretreatment [9]: increasing hair cell survival |
| N.N.[Cl][Pt][Cl] [cisplatin] | – | – | – | High frequency hearing loss (>8 kHZ) incidence [10]: ≤ 90% |
